Assay results from patent US20230114728A1 (Venatorx Pharmaceuticals, Inc., priority 2019, published 2023).
Values after ≈ are worked out from the molar mass of the structure shown.

How the values were obtained:
[1] = Bocillin-FL fluorescence polarization competition binding assay, A. baumannii PBP3; details: fluorescence polarization competition binding assay using Bocillin-FL; column 3; read-out: 4. baumannii PBP1a Potency
In short: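 A. baumannii PBP2 (2.5 μM) and PBP3 (0.2 μM) were run in 25 mM Tris pH 8.0 buffer with Tween 20; E. coli PBP3 (1.5 μM) and N. gonorrhoeae PBP2 ([…]) in 50 mM Hepes pH 8.0 buffer.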

[2] = test system: A. baumannii ATCC 19606; experiment: Broth microdilution MIC in iron-depleted CAMHB (IDM); assay type: cell-based; details: Acinetobacter baumannii, ATCC19606, read-out: Minimum Inhibitory Concentration, ATCC 19606
In short: (§1)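 Iron-limited medium: CAMHB chelated with Chelex 100, cations restored, pH 7.3. CLSI-based microdilution, 2-8×10^5 CFU/mL inoculum, 37° C for 16-20 h (P. aeruginosa) or 20-24 h (A. baumannii). Endpoint is no visible growth.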

[3] = test system: A. baumannii CDC-0083 producing NDM-1, PER-7, OXA-23, and OXA-69; experiment: as above; assay type: cell-based; details: Acinetobacter baumannii, read-out: Minimum Inhibitory Concentration, CDC-0083
In short: as §1

[4] = test system: P. aeruginosa CDC-0090 producing KPC-5, OXA-50, and PAO; experiment: as above; assay type: cell-based; details: Pseudomonas aeruginosa, read-out: Minimum Inhibitory Concentration, P. aeruginosa CDC-0090
In short: as §1

[5] = test system: A. baumannii CDC-0045 producing TEM-1D, OXA-23, and OXA-69; experiment: as above; assay type: cell-based; details: Acinetobacter baumannii, read-out: Minimum Inhibitory Concentration, CDC-0045
[6] = test system: P. aeruginosa CDC-0110; experiment: as above; assay type: cell-based; details: Pseudomonas aeruginosa, CDC0110, read-out: Minimum Inhibitory Concentration, P. aeruginosa CDC-0110
In short: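 MIC is the lowest well showing no visible growth after 16-20 h at 37 °C, starting from 2-8×10^5 CFU/mL in 2-fold serial compound dilutions. Medium: cation-adjusted Mueller Hinton broth iron-depleted with Chelex 100, supplemented back with Ca, Mg and Zn, pH 7.3; CLSI protocol.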

Row | SMILES | EC50 [1] | MIC [2] | MIC [3] | MIC [4] | MIC [5] | MIC [6]
1 | CS(=O)(=O)N1CCN(C(=O)N[C@@H](C(=O)N[C@H]2Cc3ccc(F)c(C(=O)O)c3OB2O)c2cc(F)c(O)c(O)c2Cl)C1=O (single isomer, unassigned) [Example 189] | 10 to 30 µM | 0.5 to 1 µg/mL (≈ 0.79 to 1.58 µM) | 32 to 64 µg/mL (≈ 50.6 to 101 µM) | 0.5 to 1 µg/mL (≈ 0.79 to 1.58 µM) | 2 to 4 µg/mL (≈ 3.16 to 6.32 µM) | 0.5 to 1 µg/mL (≈ 0.79 to 1.58 µM)
2 | Nc1nc(C(NC(=O)N2CCN(CCNC(=O)c3ccc(O)c(O)c3Cl)C(=O)C2=O)C(=O)N[C@H]2Cc3ccc(F)c(C(=O)O)c3OB2O)c(F)s1 (stereo partly drawn) [Example 4, (3R)-3-(2-(2-amino-5-fluorothiazol-4-yl)-2-(4-(2-(2-chloro-3,4-dihydroxybenzamido)ethyl)-2,3-dioxopiperazine-1-carboxamido)acetamido)-7-fluoro-2-hydroxy-3,4-dihydro-2H-benzo[e][1,2]oxaborinine-8-carboxylic acid] | – | 0.5 to 1 µg/mL (≈ 0.665 to 1.33 µM) | 32 to 64 µg/mL (≈ 42.6 to 85.1 µM) | 0.25 µg/mL (≈ 0.333 µM) | 2 to 4 µg/mL (≈ 2.66 to 5.32 µM) | 0.25 µg/mL (≈ 0.333 µM)
3 | CCN1CCN(C(=O)N[C@@H](C(=O)N[C@H]2Cc3cccc(C(=O)O)c3OB2O)c2c(O)cc(O)cc2F)C(=O)C1=O (single isomer, unassigned) [Example 182] | > 100 µM | – | – | – | – | –
4 | CCN1CCN(C(=O)N[C@@H](C(=O)N[C@H]2Cc3ccc(F)c(C(=O)O)c3OB2O)c2ccc(O)c(O)c2)C(=O)C1=O [Example 211, (R)-3-((R)-2-(3,4-dihydroxyphenyl)-2-(4-ethyl-2,3-dioxopiperazine-1-carboxamido)acetamido)-7-fluoro-2-hydroxy-3,4-dihydro-2H-benzo[e][1,2]oxaborinine-8-carboxylic acid] | 30 to 100 µM | 2 to 4 µg/mL (≈ 3.58 to 7.16 µM) | > 128 µg/mL | 8 to 16 µg/mL (≈ 14.3 to 28.7 µM) | > 128 µg/mL | 2 to 4 µg/mL (≈ 3.58 to 7.16 µM)
5 | CCN1CCN(C(=O)NC(C(=O)N[C@H]2Cc3cccc(C(=O)O)c3OB2O)c2c(F)cc(NC(C)=O)cc2F)C(=O)C1=O (stereo partly drawn) [Example 188, (3R)-3-(2-(4-acetamido-2,6-difluorophenyl)-2-(4-ethyl-2,3-dioxopiperazine-1-carboxamido)acetamido)-2-hydroxy-3,4-dihydro-2H-benzo[e][1,2]oxaborinine-8-carboxylic acid] | < 10 µM | – | – | – | – | –
6 | CCN1CCN(C(=O)N[C@H](C(=O)N[C@H]2Cc3ccc(F)c(C(=O)O)c3OB2O)c2ccc(O)c(O)c2)C(=O)C1=O [Example 210, (R)-3-((S)-2-(3,4-dihydroxyphenyl)-2-(4-ethyl-2,3-dioxopiperazine-1-carboxamido)acetamido)-7-fluoro-2-hydroxy-3,4-dihydro-2H-benzo[e][1,2]oxaborinine-8-carboxylic acid] | > 100 µM | > 128 µg/mL | > 128 µg/mL | > 128 µg/mL | > 128 µg/mL | > 128 µg/mL
7 | O=C(NCCCN1CCN(C(=O)NC(C(=O)N[C@H]2Cc3cccc(C(=O)O)c3OB2O)c2ncc(O)cc2F)C(=O)C1=O)c1ccc(O)c(O)c1Cl (stereo partly drawn) [Example 1, (3R)-3-(2-(4-(3-(2-chloro-3,4-dihydroxybenzamido)propyl)-2,3-dioxopiperazine-1-carboxamido)-2-(3-fluoro-5-hydroxypyridin-2-yl)acetamido)-2-hydroxy-3,4-dihydro-2H-benzo[e][1,2]oxaborinine-8-carboxylic acid] | – | 2 to 4 µg/mL (≈ 2.69 to 5.38 µM) | – | – | – | –
8 | CS(=O)(=O)N1CCN(C(=O)NC(C(=O)N[C@H]2Cc3ccc(F)c(C(=O)O)c3OB2O)c2c(Cl)cc(O)c(O)c2F)C1=O (stereo partly drawn) [Example 208, (3R)-3-(2-(6-chloro-2-fluoro-3,4-dihydroxyphenyl)-2-(3-(methylsulfonyl)-2-oxoimidazolidine-1-carboxamido)acetamido)-7-fluoro-2-hydroxy-3,4-dihydro-2H-benzo[e][1,2]oxaborinine-8-carboxylic acid] | 30 to 100 µM | 2 to 4 µg/mL (≈ 3.16 to 6.32 µM) | > 128 µg/mL | 2 to 4 µg/mL (≈ 3.16 to 6.32 µM) | > 128 µg/mL | 8 to 16 µg/mL (≈ 12.6 to 25.3 µM)
9 | C[C@H]1CN(CCNC(=O)c2ccc(O)c(O)c2Cl)C(=O)C(=O)N1C(=O)NC(C(=O)N[C@H]1Cc2cccc(C(=O)O)c2OB1O)c1ncc(O)cc1F (stereo partly drawn) [Example 2, (3R)-3-(2-((S)-4-(2-(2-chloro-3,4-dihydroxybenzamido)ethyl)-6-methyl-2,3-dioxopiperazine-1-carboxamido)-2-(3-fluoro-5-hydroxypyridin-2-yl)acetamido)-2-hydroxy-3,4-dihydro-2H-benzo[e][1,2]oxaborinine-8-carboxylic acid] | < 10 µM | 0.5 to 1 µg/mL (≈ 0.673 to 1.35 µM) | 8 to 16 µg/mL (≈ 10.8 to 21.5 µM) | 2 to 4 µg/mL (≈ 2.69 to 5.38 µM) | 2 to 4 µg/mL (≈ 2.69 to 5.38 µM) | 2 to 4 µg/mL (≈ 2.69 to 5.38 µM)
10 | Nc1nc(/C(=N/OC[C@H](NC(=O)c2ccc(O)c(O)c2Cl)C(=O)O)C(=O)N[C@H]2Cc3cccc(C(=O)O)c3OB2O)cs1 [Example 6, (R)-3-((Z)-2-(2-aminothiazol-4-yl)-2-(((S)-2-carboxy-2-(2-chloro-3,4-dihydroxybenzamido)ethoxy)imino)acetamido)-2-hydroxy-3,4-dihydro-2H-benzo[e][1,2]oxaborinine-8-carboxylic acid] | > 100 µM | 32 to 64 µg/mL (≈ 50.5 to 101 µM) | 32 to 64 µg/mL (≈ 50.5 to 101 µM) | 0.5 to 1 µg/mL (≈ 0.789 to 1.58 µM) | 32 to 64 µg/mL (≈ 50.5 to 101 µM) | 2 to 4 µg/mL (≈ 3.16 to 6.31 µM)
11 | CCN1CCN(C(=O)N[C@@H](C(=O)N[C@H]2Cc3ccc(F)c(C(=O)O)c3OB2O)c2c(Cl)cc(O)c(O)c2F)C(=O)C1=O (single isomer, unassigned) [Example 207] | 10 to 30 µM | 0.5 to 1 µg/mL (≈ 0.819 to 1.64 µM) | > 128 µg/mL | 2 to 4 µg/mL (≈ 3.27 to 6.55 µM) | > 128 µg/mL | 2 to 4 µg/mL (≈ 3.27 to 6.55 µM)
12 | O=C(NCCN1CCN(C(=O)NC(C(=O)N[C@H]2Cc3ccc(F)c(C(=O)O)c3OB2O)c2ncc(O)cc2F)C(=O)C1=O)c1c(F)cc(O)c(O)c1Cl (stereo partly drawn) [Example 5, (3R)-3-(2-(4-(2-(2-chloro-6-fluoro-3,4-dihydroxybenzamido)ethyl)-2,3-dioxopiperazine-1-carboxamido)-2-(3-fluoro-5-hydroxypyridin-2-yl)acetamido)-7-fluoro-2-hydroxy-3,4-dihydro-2H-benzo[e][1,2]oxaborinine-8-carboxylic acid] | < 10 µM | 0.5 to 1 µg/mL (≈ 0.654 to 1.31 µM) | 32 to 64 µg/mL (≈ 41.8 to 83.7 µM) | 0.25 µg/mL (≈ 0.327 µM) | 2 to 4 µg/mL (≈ 2.61 to 5.23 µM) | 0.25 µg/mL (≈ 0.327 µM)
13 | CCN1CCN(C(=O)N[C@@H](C(=O)N[C@H]2Cc3cc(Cl)c(F)c(C(=O)O)c3OB2O)c2c(F)cc(O)c(O)c2Cl)C(=O)C1=O [Example 191, (R)-6-chloro-3-((R)-2-(2-chloro-6-fluoro-3,4-dihydroxyphenyl)-2-(4-ethyl-2,3-dioxopiperazine-1-carboxamido)acetamido)-7-fluoro-2-hydroxy-3,4-dihydro-2H-benzo[e][1,2]oxaborinine-8-carboxylic acid] | 30 to 100 µM | 8 to 16 µg/mL (≈ 12.4 to 24.8 µM) | > 128 µg/mL | 8 to 16 µg/mL (≈ 12.4 to 24.8 µM) | > 128 µg/mL | 2 to 4 µg/mL (≈ 3.1 to 6.2 µM)
14 | NCCN1CCN(C(=O)N[C@@H](C(=O)N[C@H]2Cc3ccc(F)c(C(=O)O)c3OB2O)c2c(F)c(F)c(O)c(O)c2Cl)C(=O)C1=O [Example 226, (R)-3-((R)-2-(4-(2-aminoethyl)-2,3-dioxopiperazine-1-carboxamido)-2-(2-chloro-5,6-difluoro-3,4-dihydroxyphenyl)acetamido)-7-fluoro-2-hydroxy-3,4-dihydro-2H-benzo[e][1,2]oxaborinine-8-carboxylic acid] | > 100 µM | 0.5 to 1 µg/mL (≈ 0.777 to 1.55 µM) | 2 to 4 µg/mL (≈ 3.11 to 6.21 µM) | – | 8 to 16 µg/mL (≈ 12.4 to 24.9 µM) | 0.5 to 1 µg/mL (≈ 0.777 to 1.55 µM)
15 | O=C(NCCCN1CCN(C(=O)NC(C(=O)N[C@H]2Cc3ccc(F)c(C(=O)O)c3OB2O)c2ncc(O)cc2F)C(=O)C1=O)c1ccc(O)c(O)c1Cl (stereo partly drawn) [Example 3, (3R)-3-(2-(4-(3-(2-chloro-3,4-dihydroxybenzamido)propyl)-2,3-dioxopiperazine-1-carboxamido)-2-(3-fluoro-5-hydroxypyridin-2-yl)acetamido)-7-fluoro-2-hydroxy-3,4-dihydro-2H-benzo[e][1,2]oxaborinine-8-carboxylic acid] | < 10 µM | 32 to 64 µg/mL (≈ 42.1 to 84.1 µM) | 32 to 64 µg/mL (≈ 42.1 to 84.1 µM) | 8 to 16 µg/mL (≈ 10.5 to 21 µM) | 32 to 64 µg/mL (≈ 42.1 to 84.1 µM) | 2 to 4 µg/mL (≈ 2.63 to 5.26 µM)
16 | NCCCN1CCN(C(=O)N[C@@H](C(=O)N[C@H]2Cc3cc(Cl)c(F)c(C(=O)O)c3OB2O)c2c(F)cc(O)c(O)c2Cl)C(=O)C1=O [Example 190, (R)-3-((R)-2-(4-(3-aminopropyl)-2,3-dioxopiperazine-1-carboxamido)-2-(2-chloro-6-fluoro-3,4-dihydroxyphenyl)acetamido)-6-chloro-7-fluoro-2-hydroxy-3,4-dihydro-2H-benzo[e][1,2]oxaborinine-8-carboxylic acid] | > 100 µM | > 128 µg/mL | > 128 µg/mL | 0.5 to 1 µg/mL (≈ 0.742 to 1.48 µM) | > 128 µg/mL | 2 to 4 µg/mL (≈ 2.97 to 5.93 µM)
